Data reported in the NIST ThermoML archive (doi:10.1021/acs.jced.8b01135).
“And” between values parts separate entries of the source, which are not always exact repeats. Equal values may be shown once.

Assays:
[1] = Liquid; for speed of sound: Frequency=3 MHz, Single path-length method; for mass density: Vibrating tube method; for viscosity: Concentric cylinders viscometry
[2] = xn = mol fraction of the nth substance listed; conditions: 102 kPa, Liquid, x2 = 0; for speed of sound: Frequency=3 MHz, Single path-length method; for mass density: Vibrating tube method; for viscosity: Concentric cylinders viscometry

CCCC1CCCCC1 [1-cyclohexylpropane]
[1]
Conditions | mass density, 102 kPa [kg/m3] | speed of sound, 88 kPa [m/s] | speed of sound, 102 kPa [m/s] | viscosity, 102 kPa [mPa·s]
288.15 K | 797.42 | – | 1328.6 | –
293.15 K | 793.53 | 1307.7 | 1307.7 | 0.981
298.15 K | 789.63 | – | 1287.1 | –
303.15 K | 785.72 | 1266.6 | 1266.6 | 0.856
313.15 K | 777.88 | 1226.2 | 1226.2 | 0.75
323.15 K | 770 | 1186.5 | 1186.5 | 0.668
333.15 K | 762.09 | 1147.7 | 1147.7 | 0.594

CCCCCCCCCCC1CCCCC1 [decylcyclohexane]
[1], 102 kPa
Conditions | mass density [kg/m3] | speed of sound [m/s] | viscosity [mPa·s]
288.15 K | 821.93 | 1425.2 | –
293.15 K | 818.54 | 1406.4 | 5.34
298.15 K | 815.16 | 1387.7 | –
303.15 K | 811.78 | 1369.1 | 4.09
313.15 K | 805.02 | 1332.8 | 3.23
323.15 K | 798.26 | 1297.2 | 2.6
333.15 K | 791.49 | 1262.7 | 2.15

CCCCCCCCCCCC [dodecane]
[1], 102 kPa
Conditions | mass density | speed of sound [m/s] | viscosity [mPa·s]
288.15 K | 752.35 kg/m3 | 1317.2 | –
293.15 K | 748.72 kg/m3 | 1297.7 | 1.49
298.15 K | 745.09 kg/m3 | 1278.2 | –
303.15 K | 741.46 kg/m3 | 1259 | 1.27
313.15 K | 734.18 kg/m3 and 734.19 kg/m3 | 1221.1 | 1.08
323.15 K | 726.88 kg/m3 | 1184 | 0.934
333.15 K | 719.53 kg/m3 | 1147.8 | 0.813

CCCCCCCCCCCC [dodecane] + CCCC1CCCCC1
[2]
Conditions | mass density [kg/m3] | speed of sound [m/s] | viscosity [mPa·s]
288.15 K | 752.35 | 1317.2 | –
293.15 K | 748.72 | 1297.7 | 1.49
298.15 K | 745.09 | 1278.2 | –
303.15 K | 741.46 | 1259 | 1.27
313.15 K | 734.19 | 1221.1 | 1.08
323.15 K | 726.88 | 1184 | 0.934
333.15 K | 719.53 | 1147.8 | 0.813

CCCCCCCCCCCC [dodecane] + CCCCCC1CCCCC1
[2]
Conditions | mass density [kg/m3] | speed of sound [m/s] | viscosity [mPa·s]
288.15 K | 752.35 | 1317.2 | –
293.15 K | 748.72 | 1297.7 | 1.49
298.15 K | 745.09 | 1278.2 | –
303.15 K | 741.46 | 1259 | 1.27
313.15 K | 734.19 | 1221.1 | 1.08
323.15 K | 726.88 | 1184 | 0.934
333.15 K | 719.53 | 1147.8 | 0.813

CCCCCCCCCCCC [dodecane] + CCCCCCC1CCCCC1
[2]
Conditions | mass density [kg/m3] | speed of sound [m/s] | viscosity [mPa·s]
288.15 K | 752.35 | 1317.2 | –
293.15 K | 748.72 | 1297.7 | 1.49
298.15 K | 745.09 | 1278.2 | –
303.15 K | 741.46 | 1259 | 1.27
313.15 K | 734.19 | 1221.1 | 1.08
323.15 K | 726.88 | 1184 | 0.934
333.15 K | 719.53 | 1147.8 | 0.813

CCCCCCCCCCCC [dodecane] + CCCCCCCC1CCCCC1
[2]
Conditions | mass density [kg/m3] | speed of sound [m/s] | viscosity [mPa·s]
288.15 K | 752.35 | 1317.2 | –
293.15 K | 748.72 | 1297.7 | 1.49
298.15 K | 745.09 | 1278.2 | –
303.15 K | 741.46 | 1259 | 1.27
313.15 K | 734.19 | 1221.1 | 1.08
323.15 K | 726.88 | 1184 | 0.934
333.15 K | 719.53 | 1147.8 | 0.813
